According to patent US9206219B2, “17-hydroxy-17-pentafluorethyl-estra-4,9(10)-dien-11-aryl derivatives, methods for the production thereof and the use thereof for treating diseases” (Bayer Intellectual Property GmbH, priority 2009, dated 2015):

Tests used:
[1] = target: T1, human progesterone receptor A (Homo sapiens, UniProt P06401); test: Progesterone receptor-antagonistic action in stably transfected SK-N-MC cells, MMTV-LUC reporter (PR-A); type: cell-based; details: antagonistic potency vs 0.1 nmol/l promegestone, 24 hours
T1 construct: expressed in transfected cells; host or cells: SK-N-MC human neuroblastoma cells, stably transfected with pRChPR-A-neo and pMMTV-LUC
T1 sequence (P06401 1-769 isoform P06401-2): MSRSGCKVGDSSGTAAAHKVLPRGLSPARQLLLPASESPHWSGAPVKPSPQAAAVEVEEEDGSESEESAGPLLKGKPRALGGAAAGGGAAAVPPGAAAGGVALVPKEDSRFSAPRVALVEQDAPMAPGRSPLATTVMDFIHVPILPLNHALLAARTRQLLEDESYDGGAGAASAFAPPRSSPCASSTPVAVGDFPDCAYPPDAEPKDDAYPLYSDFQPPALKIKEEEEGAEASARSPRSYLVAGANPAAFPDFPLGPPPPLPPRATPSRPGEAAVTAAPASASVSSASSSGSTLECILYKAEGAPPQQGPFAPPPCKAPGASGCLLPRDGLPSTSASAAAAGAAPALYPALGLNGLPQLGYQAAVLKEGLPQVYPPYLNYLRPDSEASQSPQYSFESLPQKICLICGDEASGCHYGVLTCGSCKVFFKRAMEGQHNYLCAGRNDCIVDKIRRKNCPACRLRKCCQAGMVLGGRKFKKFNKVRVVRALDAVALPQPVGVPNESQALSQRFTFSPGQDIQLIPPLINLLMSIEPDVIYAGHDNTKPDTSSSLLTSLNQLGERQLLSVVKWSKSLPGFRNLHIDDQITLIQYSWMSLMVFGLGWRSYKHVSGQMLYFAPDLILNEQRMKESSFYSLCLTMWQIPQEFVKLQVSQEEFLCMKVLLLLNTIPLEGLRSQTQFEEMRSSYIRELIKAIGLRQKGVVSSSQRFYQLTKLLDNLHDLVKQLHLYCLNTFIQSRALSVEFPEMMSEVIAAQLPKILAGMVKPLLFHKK
Protocol: (§1) Progesterone Receptor-Antagonistic Action in Stable Transfectants of Human Neuroblastoma Cells (SK-N-MC Cells) with the Human Progesterone A or Progesterone B Receptor and an MN-LUC Reporter Construct
(§2) SK-N-MC cells (human neuroblastoma cells) which have been stably transfected with plasmids expressing the human progesterone receptor B (pRChPR-B-neo) or the human progesterone receptor A (pRChPR-A-neo) and a reporter construct (pMMTV-LUC) were incubated for 24 hours either in the absence (negative control) or in the presence of ascending amounts of the particular test compound (0.01 nmol/l, 0.1 nmol/l, 1 nmol/l, 10 nmol/l, 100 nmol/l and […]), in order to determine the agonistic efficacy. As a positive control of the reporter gene induction, the cells were treated with the synthetic gestagen promegestone (0.01 nmol/l, 0.1 nmol/l, 1 nmol/l, 10 nmol/l, 100 nmol/l and […]). To determine the antagonistic activity, the cells were treated with 0.1 nmol/l promegestone and additionally with ascending amounts of the particular test compound (0.01 nmol/l, 0.1 nmol/l, 1 nmol/l, 10 nmol/l, 100 nmol/l and […]). The activity of the reporter gene LUC (LUC=luciferase) was determined in the cell lysates and measured as RLU (relative light units). All measurements are reported as % efficacy and as EC50 and IC50 concentrations.

[2] = target: T2, human progesterone receptor B (Homo sapiens, UniProt P06401); test: Progesterone receptor-antagonistic action in stably transfected SK-N-MC cells, MMTV-LUC reporter (PR-B); type: cell-based; details: antagonistic potency vs 0.1 nmol/l promegestone, 24 hours
T2 construct: expressed in transfected cells; host or cells: SK-N-MC human neuroblastoma cells, stably transfected with pRChPR-B-neo and pMMTV-LUC
T2 sequence (P06401 1-933): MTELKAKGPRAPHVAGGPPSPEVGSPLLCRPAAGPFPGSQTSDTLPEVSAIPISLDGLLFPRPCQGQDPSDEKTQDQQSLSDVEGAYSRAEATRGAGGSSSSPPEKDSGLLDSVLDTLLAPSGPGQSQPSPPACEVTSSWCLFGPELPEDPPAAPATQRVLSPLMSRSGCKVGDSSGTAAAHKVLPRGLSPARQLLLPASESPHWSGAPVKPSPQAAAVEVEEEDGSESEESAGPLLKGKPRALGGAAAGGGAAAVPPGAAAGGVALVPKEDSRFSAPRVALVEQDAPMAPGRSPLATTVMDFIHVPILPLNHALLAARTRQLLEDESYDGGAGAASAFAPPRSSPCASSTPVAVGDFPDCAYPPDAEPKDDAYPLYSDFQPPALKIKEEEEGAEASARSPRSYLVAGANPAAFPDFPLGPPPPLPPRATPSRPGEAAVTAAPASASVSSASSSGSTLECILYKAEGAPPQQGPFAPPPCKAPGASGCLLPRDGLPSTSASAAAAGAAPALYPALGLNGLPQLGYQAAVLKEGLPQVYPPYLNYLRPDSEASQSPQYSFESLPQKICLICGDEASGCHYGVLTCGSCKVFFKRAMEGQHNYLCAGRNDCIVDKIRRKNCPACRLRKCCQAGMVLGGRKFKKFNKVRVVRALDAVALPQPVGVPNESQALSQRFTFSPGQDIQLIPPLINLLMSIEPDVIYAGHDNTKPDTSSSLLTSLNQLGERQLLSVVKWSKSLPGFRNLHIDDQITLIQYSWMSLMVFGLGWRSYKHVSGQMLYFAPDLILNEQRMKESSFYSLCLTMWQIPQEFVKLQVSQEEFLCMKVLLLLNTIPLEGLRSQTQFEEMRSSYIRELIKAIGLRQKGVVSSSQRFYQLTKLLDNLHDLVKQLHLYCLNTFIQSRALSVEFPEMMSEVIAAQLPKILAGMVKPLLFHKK
Protocol: as §1, §2

| SMILES | IC50 [1] [nM] | IC50 [2] [nM] |
| --- | --- | --- |
| CC(=O)c1cccc([C@H]2C[C@@]3(C)[C@@H](CC[C@@]3(O)C(F)(F)C(F)(F)F)[C@@H]3CCC4=CC(=O)CCC4=C32)c1 [Example 10, (8S,11R,13S,14S,17S)-11-(3-acetylphenyl)-17-hydroxy-13-methyl-17-pentafluoroethyl-1,2,6,7,8,11,12,13,14,15,16,17-dodecahydrocyclopenta[a]phenanthren-3-one] | 5 | 3 |
| C[C@]12C[C@H](c3cccc(C4CC4)c3)C3=C4CCC(=O)C=C4CC[C@H]3[C@@H]1CC[C@@]2(O)C(F)(F)C(F)(F)F [Example 12, (8S,11R,13S,14S,17S)-11-(3-cyclopropylphenyl)-17-hydroxy-13-methyl-17-pentafluoroethyl-1,2,6,7,8,11,12,13,14,15,16,17-dodecahydrocyclopenta[a]phenanthren-3-one] | 4 | 9 |
| C=CCNC(=O)NCc1ccc([C@H]2C[C@@]3(C)[C@@H](CC[C@@]3(O)C(F)(F)C(F)(F)F)[C@@H]3CCC4=CC(=O)CCC4=C32)cc1 [Example 18, 1-allyl-3-[4-((8S,11R,13S,14S,17S)-17-hydroxy-13-methyl-3-oxo-17-pentafluoroethyl-2,3,6,7,8,11,12,13,14,15,16,17-dodecahydro-1H-cyclopenta[a]phenanthren-11-yl)benzyl]urea] | 0.8 | 0.8 |
| CC(O)c1cccc([C@H]2C[C@@]3(C)C(CC[C@@]3(O)C(F)(F)C(F)(F)F)C3CCC4=CC(=O)CCC4=C32)c1 (mixture of isomers) [Example 11, (8S,11R,13S,14S,17S)-17-hydroxy-11-[3-((RS)-1-hydroxyethyl)phenyl]-13-methyl-17-pentafluoroethyl-1,2,6,7,8,11,12,13,14,15,16,17-dodecahydrocyclopenta[a]phenanthren-3-one] | 2 | 3 |
| CCOC(=O)CNC(=O)NCc1ccc([C@H]2C[C@@]3(C)[C@@H](CC[C@@]3(O)C(F)(F)C(F)(F)F)[C@@H]3CCC4=CC(=O)CCC4=C32)cc1 [Example 21, {3-[4-((8S,11R,13S,14S,17S)-17-hydroxy-13-methyl-3-oxo-17-pentafluoroethyl-2,3,6,7,8,11,12,13,14,15,16,17-dodecahydro-1H-cyclopenta[a]phenanthren-11-yl)benzyl]ureido}acetic acid ethyl ester] | 1.2 | 2.4 |
| C[C@]12C[C@H](c3cccc(CCO)c3)C3=C4CCC(=O)C=C4CC[C@H]3[C@@H]1CC[C@@]2(O)C(F)(F)C(F)(F)F [Example 14, (8S,11R,13S,14S,17S)-17-hydroxy-11-[3-(2-hydroxyethyl)phenyl]-13-methyl-17-pentafluoroethyl-1,2,6,7,8,11,12,13,14,15,16,17-dodecahydrocyclopenta[a]phenanthren-3-one] | 1 | 1 |
| CC(C)NC(=O)NCc1ccc([C@H]2C[C@@]3(C)[C@@H](CC[C@@]3(O)C(F)(F)C(F)(F)F)[C@@H]3CCC4=CC(=O)CCC4=C32)cc1 [Example 19, 1-isopropyl-3-[4-((8S,11R,13S,14S,17S)-17-hydroxy-13-methyl-3-oxo-17-pentafluoroethyl-2,3,6,7,8,11,12,13,14,15,16,17-dodecahydro-1H-cyclopenta[a]phenanthren-11-yl)benzyl]urea] | 0.6 | 0.7 |
| C[C@]12C[C@H](c3ccc(CNC(=O)NCC(=O)O)cc3)C3=C4CCC(=O)C=C4CC[C@H]3[C@@H]1CC[C@@]2(O)C(F)(F)C(F)(F)F [Example 26, {3-[4-((8S,11R,13S,14S,17S)-17-hydroxy-13-methyl-3-oxo-17-pentafluoroethyl-2,3,6,7,8,11,12,13,14,15,16,17-dodecahydro-1H-cyclopenta[a]phenanthren-11-yl)benzyl]ureido}acetic acid] | 24 | 64 |

Compounds with a lower IC50 [1], results first:

| IC50 [1] [nM] | IC50 [2] [nM] | SMILES |
| --- | --- | --- |
| 0.1 | 0.2 | C[C@]12C[C@H](c3ccc(CNC(=O)Nc4ccc(N5CCCCC5)cc4)cc3)C3=C4CCC(=O)C=C4CC[C@H]3[C@@H]1CC[C@@]2(O)C(F)(F)C(F)(F)F [Example 39, 1-[4-((8S,11R,13S,14S,17S)-17-hydroxy-13-methyl-3-oxo-17-pentafluoroethyl-2,3,6,7,8,11,12,13,14,15,16,17-dodecahydro-1H-cyclopenta[a]phenanthren-11-yl)benzyl]-3-(4-piperidin-1-ylphenyl)urea] |
| 0.3 | 0.6 | Cc1ccc(NC(=O)NCc2ccc([C@H]3C[C@@]4(C)[C@@H](CC[C@@]4(O)C(F)(F)C(F)(F)F)[C@@H]4CCC5=CC(=O)CCC5=C43)cc2)cc1 [Example 25, 1-[4-((8S,11R,13S,14S,17S)-17-hydroxy-13-methyl-3-oxo-17-pentafluoroethyl-2,3,6,7,8,11,12,13,14,15,16,17-dodecahydro-1H-cyclopenta[a]phenanthren-11-yl)benzyl]-3-p-tolylurea] |
| 0.02 | 0.09 | C[C@]12C[C@H](c3ccc(COC(=O)Nc4ccc(N5CCCCC5)cc4)cc3)C3=C4CCC(=O)C=C4CC[C@H]3[C@@H]1CC[C@@]2(O)C(F)(F)C(F)(F)F [Example 45, (4-piperidin-1-ylphenyl)carbamic acid 4-((8S,11R,13S,14S,17S)-17-hydroxy-13-methyl-3-oxo-17-pentafluoroethyl-2,3,6,7,8,11,12,13,14,15,16,17-dodecahydro-1H-cyclopenta[a]phenanthren-11-yl)benzyl ester] |
| 0.1 | 0.2 | COc1ccc(NC(=O)NCc2ccc([C@H]3C[C@@]4(C)[C@@H](CC[C@@]4(O)C(F)(F)C(F)(F)F)[C@@H]4CCC5=CC(=O)CCC5=C43)cc2)cc1 [Example 32, 1-[4-((8S,11R,13S,14S,17S)-17-hydroxy-13-methyl-3-oxo-17-pentafluoroethyl-2,3,6,7,8,11,12,13,14,15,16,17-dodecahydro-1H-cyclopenta[a]phenanthren-11-yl)benzyl]-3-(4-methoxyphenyl)urea] |
| 0.5 | 0.6 | CCOC(=O)CCNC(=O)NCc1ccc([C@H]2C[C@@]3(C)[C@@H](CC[C@@]3(O)C(F)(F)C(F)(F)F)[C@@H]3CCC4=CC(=O)CCC4=C32)cc1 [Example 22, 3-{3-[4-((8S,11R,13S,14S,17S)-17-hydroxy-13-methyl-3-oxo-17-pentafluoroethyl-2,3,6,7,8,11,12,13,14,15,16,17-dodecahydro-1H-cyclopenta[a]phenanthren-11-yl)benzyl]ureido}propionic acid ethyl ester] |
